Data from PMC9742639, “Inhibition of glycogen synthase kinase-3-beta (GSK3β) blocks nucleocapsid phosphorylation and SARS-CoV-2 replication” (Molecular Biomedicine, 2022).

Columns and labels:
[1] = tested on: SARS-CoV-2 variant B.1.617.2 (delta); type: cell-based
[2] = tested on: SARS-CoV-2 variant BA.1 (omicron); type: cell-based

## CSc1ccc(-n2cnc3ccc(-c4nnc(CCc5cccc(C#N)c5)o4)cc32)cc1 [P-0717632]
[1]
  effect on viral titres, B.1.617.2: reduced intracellular viral titres
[2]
  effect on viral titres, BA.1: reduced intracellular viral titres
